Measurements from patent US20240287136A1, “PHARMACEUTICAL COMPOSITION AND THE USE THEREOF IN THE TREATMENT OF AUTOIMMUNE DISEASES” (Singapore Health Services Pte. Ltd., priority 2016, published 2024).
Ends that are not written are not given here.

Legend:
[1] = tested on: Treg (CD4+CD25++CD127−) cells; experiment: PD-1 expression on Treg by FACS after incubation with SEQ ID NO. 1; type: cell-based, human; conditions: after incubation with 10 mg/ml of SEQ ID NO. 1
Method: FIG. 5. PD-1 actively contributes to Treg function: a. Treg ability to suppress Teff proliferation was determined by CFSE dilution. A representative clinical responder is depicted. Treg cells were sorted by FACS according to the phenotype depicted in the table and incubated with Teff in the presence of 10 mg/ml of SEQ ID NO. 1. b. […] 1. c. […] 1. Line with white area under the curve depicts T0, grey area depicts Tend. T(x)=Probability binning. % PD-1+Treg is expressed as percentage of the total Treg population (insets in both panels). d. […] PD-1+Treg cells were stained by FACS after a 5-day incubation with Teff and APC in the presence or absence of anti-PD1 antibody. Details in methods. Line with white area under the curve depicts anti-PD1 treated, grey area depicts untreated. T(x)=Probability binning. e. pSTAT5 was examined in Treg via immunofluorescent microscopy. Cells, staining and slides were prepared according to procedures outlined in the methods. The average pSTAT5 expression per cell for anti-PD-1 treatment, as determined by the average integral density per unit area, was calculated using ImageJ (Rasband, W. S., ImageJ, http://rsb.info.nih.gov/ij/, 1997-2009). Untreated vs. anti-PD-1 treated: 38.79 vs. 33.07, standard deviation 4.27 vs. […], t-test p<0.0001. f. […] Teff were stained by FACS after a 5-day incubation in the presence or absence of anti-PD1 antibody. Details in methods. Line with white area under the curve depicts anti-PD1 treated, grey area depicts untreated. T(x)=Probability binning. g. Total Treg, PD-1+Treg and PD-1− Treg from clinical responders (n=S) at Tend were sorted and RNA expression of CTLA-4, FoxP3, IL-10 and TGF-β was measured by TaqMan. Data are expressed as 2(−dCT)×100 of GAPDH. […] 1 clinical responders (18.99+/−3.412 vs 2.693+/−1.434, n=S p=0.0130).

[2] = tested on: CD4+FoxP3+Tregs and CD4+CD45RO+memory T cells; experiment: Cluster analysis and manual gating of Treg and memory T cell compartments of trial patients; type: in vivo, human
Text: Cluster analysis of the immune profiles of healthy individuals and rheumatoid arthritis patients reveal profound perturbations in the various immune cell compartments (FIG. 8). Immune tolerization achieved with SEQ ID NO: 1 treatment reshapes the immunomes of rheumatoid patients (FIG. 8B). The underlying immunological mechanisms behind immune tolerization was investigated by utilising staining panels for surface and activation markers on T cells (FIG. 13).
Immune phenotypes enriched in this cell subset of SEQ ID NO: 1 responders were memory T cells displaying activation and tolerogenic characteristics (FIG. 11B).

[3] = tested on: effector T cells (Teff) (CD4+CD127+); experiment: FACS of effector T cells of trial patients (PD-1, intracellular IL-17A, IL-23 receptor); type: in vivo, human
Method: (§1) FIG. 3. Effector and regulatory T cell function differ according to clinical response: a. effector T cells (Teff) (CD4+CD127+) at beginning of the trial (TO) and end of the study (Tend) were compared for PD-1 expression in both SEQ ID NO. 1 clinical responders and placebo clinical non-responders by FACS. b. FACS-sorted Teffwere analyzed for IL-17 and for RORC. Teff were stained intracellularly with IL-17A, and analyzed by FACS. c. regulatory T cell (Treg) (CD4+CD25++CD127−) frequency (% of PBMC) was determined in SEQ ID NO. 1—treated clinical responders by FACS. […] Values are the mean and s.e.m. d. Treg functionality in SEQ ID NO. […] (placebo clinical non-responders vs SEQ ID NO. 1 clinical responders, —76.21+/−3.665 vs 8.443+/−4.677, n=2 vs 3, t-test p0.0010). Values are the mean and s.e.m.
Therefore, a first hypothesis to test here is whether CD4+/CD127+T effector (Teff) cell anergy was induced by treatment with SEQ ID NO. 1. […] In addition, Teff were able to proliferate to conventional polyclonal stimuli (data not shown).
Further analysis of Teff in SEQ ID NO. […] Conversely, an increased expression in IL-17A expression was detected in placebo—treated clinical non-responders. […] 1 induced an immune deviation of Teff with a reduction in the ability to produce pro-inflammatory cytokines.
In FIG. 3b Y axis: % net change between Tend and T0 for both Teff producing IL-17A (first two columns, measured by FACS) and RORC expression (measured by TaqMan). […] Results were analyzed as a percentage of GAPDH. […] Values are the mean and s.e.m.

[4] = tested on: PBMCs; experiment: TaqMan gene expression of regulatory molecules in PBMCs incubated in vitro with SEQ ID NO. 1; type: cell-based, human; conditions: T0 PBMCs incubated with 10 mg/ml SEQ ID NO. 1 for 48 hours
Method: PBMCs from T0 were incubated in vitro with 10 mg/ml SEQ ID NO. 1 for 48 hours, and TaqMan was performed as described earlier. Data are expressed as 2(−dCT)×100 of GAPDH. PD-1, 0.3595+/−0.1033 vs 0.9310+/−0.1961, n=S, p0.0327 PD-L1, 0.1400+/−0.05308 vs 1.080+/−0.1926, n=6, p0.0005 CTLA-4, 0.2667+/−0.07313 vs 4.809+/−2.606, n=6, p0.0588 Foxp3, 0.2678+/−0.1267 vs 2.329+/−0.9527, n=6, p0.0422 P values were obtained by t-test.

[5] = tested on: regulatory T cell (Treg) (CD4+CD25++CD127−); experiment: Treg frequency in PBMC of trial patients by FACS; type: in vivo, human
Method: as §1
It is not detected in clinical responders a change in frequency of CD4+/CD25++/CD127-Treg between beginning and end of the trial (FIG. 3c). A highly significant difference between treatment responders and placebo non-responders was found in the suppressive ability of Treg at the end of the trial (FIG. 3d). This difference indicates a restoration of Treg functionality in clinical responders to treatment with SEQ ID NO. 1 (FIG. 3d and Sa).
Successful treatment with SEQ ID NO: 1 therefore induced an immune deviation of Teff cells by reducing their ability to produce pro-inflammatory cytokines. […]

[6] = placebo clinical non-responders

QKRAAYDQYGHAAFE-NH2 [SEQ ID NO. 1]
PD-1+ Treg as percentage of total Treg ([1]; clinical responder, T0): 13.3% | PD-1+ Treg as percentage of total Treg ([1]; clinical responder, Tend): 41% | PD-1+ Treg as percentage of total Treg ([1]; representative clinical non-responder, T0): 15.5% | PD-1+ Treg as percentage of total Treg ([1]; representative clinical non-responder, Tend): 12.7% | percentage of CD4+FoxP3+Tregs expressing GITR, PD-1 and HLA-DR ([2]; SEQ ID NO: 1 responders versus placebo non-responders (FIG. 8E)): higher percentage | proportion of CD4+CD45RO+memory T cells activated and regulatory (CD69 and TGFβ expression) ([2]; SEQ ID NO: 1 responders versus placebo non-responders (FIG. 11C)): larger proportion | IL-23 receptor expression in Teff ([3]; SEQ ID NO. 1-treated clinical responders, not shown): decrease | Intracellular IL-17A expression in Teff cells ([3]; clinical responders, Tend, T0 8.003+/−0.07839%, n=3, mean and s.e.m.): 4.873+/−0.6933% | % of PD-1+ in the total Teff population ([3]; clinical responders, end of trial (Tend), T0 6.312+/−1.428, n=5, mean+/−s.e.m.): 4.930+/−1.433% | CTLA-4 gene expression in PBMCs ([4]; clinical responders): 4.809+/−2.606 2(−dCT)×100 of GAPDH | Foxp3 gene expression in PBMCs ([4]; clinical responders): 2.329+/−0.9527 2(−dCT)×100 of GAPDH | PD-1 gene expression in PBMCs ([4]; clinical responders): 0.9310+/−0.1961 2(−dCT)×100 of GAPDH | PD-L1 gene expression in PBMCs ([4]; clinical responders): 1.080+/−0.1926 2(−dCT)×100 of GAPDH | CTLA-4 gene expression in PBMCs [4, 6]: 0.2667+/−0.07313 2(−dCT)×100 of GAPDH | Foxp3 gene expression in PBMCs [4, 6]: 0.2678+/−0.1267 2(−dCT)×100 of GAPDH | PD-1 gene expression in PBMCs [4, 6]: 0.3595+/−0.1033 2(−dCT)×100 of GAPDH | PD-L1 gene expression in PBMCs [4, 6]: 0.1400+/−0.05308 2(−dCT)×100 of GAPDH | change of frequency of Tregs between beginning and end of the trial ([5]; FIG. 9B): did not change | Treg frequency in PBMC ([5]; clinical responders, Tend, T0 7.773+/−1.432, n=4, mean and s.e.m.): 7.610+/−1.519 % of PBMC
